Assay results from ChEMBL document CHEMBL4330150, “Synthesis and biological evaluation of pyrazole linked benzothiazole-β-naphthol derivatives as topoisomerase I inhibitors with DNA binding ability” (Bioorg Med Chem, 2019).
Active and inactive are the calls of the source. No cut-off for these calls is given here.

Assays:
HeLa [1] = test: Cell cycle arrest in human HeLa cells assessed as accumulation at S phase at 5 uM after 48 hrs by propidium iodide staining based FACS analysis (reference value: 5.58%); assay type: functional
Calf thymus DNA [2] = test: Binding affinity to calf thymus DNA assessed as hypochromicity shift in positive band at DNA to compound ratio of 1:1 by CD spectral analysis; assay type: nucleic-acid assay; details: Bos taurus
[3] = biological target: T1, DNA topoisomerase 1 (Homo sapiens) (UniProt P11387); test: Inhibition of topoisomerase-1 (unknown origin) at 100 uM using pBR322 DNA as substrate after 30 mins by agarose gel electrophoresis method
T1 sequence (whole entry): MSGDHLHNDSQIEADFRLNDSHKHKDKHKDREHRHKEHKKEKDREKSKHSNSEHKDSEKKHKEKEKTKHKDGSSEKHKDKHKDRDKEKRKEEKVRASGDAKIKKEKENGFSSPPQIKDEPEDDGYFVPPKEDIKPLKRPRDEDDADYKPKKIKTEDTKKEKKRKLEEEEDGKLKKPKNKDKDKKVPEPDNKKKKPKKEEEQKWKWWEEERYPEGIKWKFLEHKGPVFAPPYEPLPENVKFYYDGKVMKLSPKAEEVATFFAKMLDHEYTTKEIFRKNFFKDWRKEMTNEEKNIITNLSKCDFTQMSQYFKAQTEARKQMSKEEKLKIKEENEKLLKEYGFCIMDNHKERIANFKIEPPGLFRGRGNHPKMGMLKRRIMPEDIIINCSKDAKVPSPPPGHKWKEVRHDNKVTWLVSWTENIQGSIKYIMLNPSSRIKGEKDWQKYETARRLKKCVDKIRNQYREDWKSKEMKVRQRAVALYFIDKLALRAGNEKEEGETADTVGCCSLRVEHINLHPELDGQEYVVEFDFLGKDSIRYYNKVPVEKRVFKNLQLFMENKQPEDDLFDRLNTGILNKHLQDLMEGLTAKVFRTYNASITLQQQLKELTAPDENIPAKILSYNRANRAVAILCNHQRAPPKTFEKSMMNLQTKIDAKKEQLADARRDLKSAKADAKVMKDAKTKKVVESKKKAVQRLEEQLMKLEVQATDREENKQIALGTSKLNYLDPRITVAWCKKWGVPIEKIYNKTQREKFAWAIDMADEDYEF

MCF7 = test: Antiproliferative activity against human MCF7 cells after 48 hrs by MTT assay; assay type: functional, cell-based; details: MCF7, 48 h
Calf thymus DNA [4] = test: Binding affinity to calf thymus DNA assessed as hypochromicity shift at 10 uM by fluorescence spectral analysis; assay type: nucleic-acid assay; details: Bos taurus
A549 = test: Antiproliferative activity against human A549 cells after 48 hrs by MTT assay; assay type: functional, cell-based; details: A549, 48 h
HeLa [5] = test: Antiproliferative activity against human HeLa cells after 48 hrs by MTT assay; assay type: functional, cell-based
HeLa [6] = test: Cell cycle arrest in human HeLa cells assessed as accumulation at G1 phase at 2.5 uM after 48 hrs by propidium iodide staining based FACS analysis (reference value: 73.5%); assay type: functional
HeLa [7] = test: Cell cycle arrest in human HeLa cells assessed as accumulation at sub-G1 phase at 2.5 uM after 48 hrs by propidium iodide staining based FACS analysis (reference value: 1.69%); assay type: functional
HeLa [8] = test: Cell cycle arrest in human HeLa cells assessed as accumulation at G2/M phase at 2.5 uM after 48 hrs by propidium iodide staining based FACS analysis (reference value: 13.9%); assay type: functional
Calf thymus DNA [9] = test: Binding affinity to calf thymus DNA assessed as hypochromicity at 10 uM by UV-Visible spectrophotometric method; assay type: nucleic-acid assay; details: Bos taurus
HeLa [10] = test: Cell cycle arrest in human HeLa cells assessed as accumulation at sub-G1 phase at 5 uM after 48 hrs by propidium iodide staining based FACS analysis (reference value: 1.69%); assay type: functional
HeLa [11] = test: Cell cycle arrest in human HeLa cells assessed as accumulation at G2/M phase at 5 uM after 48 hrs by propidium iodide staining based FACS analysis (reference value: 13.9%); assay type: functional
HeLa [12] = test: Cell cycle arrest in human HeLa cells assessed as accumulation at S phase at 2.5 uM after 48 hrs by propidium iodide staining based FACS analysis (reference value: 5.58%); assay type: functional
HEK293 = test: Antiproliferative activity against HEK293 cells after 48 hrs by MTT assay; assay type: cell-based; details: Homo sapiens, HEK293, 48 h
Calf thymus DNA [13] = test: Binding affinity to calf thymus DNA assessed as hypochromicity shift in negative band at DNA to compound ratio of 1:1 to 1:2 by CD spectral analysis; assay type: nucleic-acid assay; details: Bos taurus
Calf thymus DNA [14] = test: Binding affinity to calf thymus DNA assessed as hypochromicity shift in positive band at DNA to compound ratio of 1:2 by CD spectral analysis; assay type: nucleic-acid assay; details: Bos taurus
Calf thymus DNA [15] = test: Binding affinity to calf thymus DNA assessed as DNA intercalation by measuring increase in viscosity at 15 uM by Ostwald viscometric method; assay type: nucleic-acid assay; details: Bos taurus
HeLa [16] = test: Cell cycle arrest in human HeLa cells assessed as accumulation at G1 phase at 5 uM after 48 hrs by propidium iodide staining based FACS analysis (reference value: 73.5%); assay type: functional
Calf thymus DNA [17] = test: Binding affinity to calf thymus DNA assessed as DNA intercalation by measuring increase in viscosity at 5 uM by Ostwald viscometric method; assay type: nucleic-acid assay; details: Bos taurus

SMILES | IC50 (MCF7) [µM] | IC50 (A549) [µM] | IC50 (HeLa [5]) [µM] | also measured
COc1ccc2nc(NC(c3cn(-c4ccccc4)nc3-c3ccc(Cl)cc3)c3c(O)ccc4ccccc34)sc2c1 (centres undefined) | 23.7 | 34.5 | 5.2 | Activity (HeLa [1]): 9.03%; Activity (Calf thymus DNA [2]): Active; inhibition [3]: Active; Activity (Calf thymus DNA [4]): 507 nm; Activity (HeLa [6]): 66.2%; Activity (HeLa [7]): 2.33%; Activity (HeLa [8]): 19.9%; Activity (Calf thymus DNA [9]): Active; Activity (HeLa [10]): 2.03%; Activity (HeLa [11]): 20%; Activity (HeLa [12]): 8.89%; IC50 (HEK293): 56 µM; Activity (Calf thymus DNA [13]): Active; Activity (Calf thymus DNA [14]): Active; Activity (Calf thymus DNA [15]): inactive; Activity (HeLa [16]): 66.5%
COc1cccc(-c2nn(-c3ccccc3)cc2C(Nc2nc3ccccc3s2)c2c(O)ccc3ccccc23)c1 (centres undefined) | 16.9 | 24.8 | 14.9 | 
O=[N+]([O-])c1cccc(-c2nn(-c3ccccc3)cc2C(Nc2nc3ccccc3s2)c2c(O)ccc3ccccc23)c1 (centres undefined) | 43.9 | 32 | 8.22 | 
COc1ccc(-c2nn(-c3ccccc3)cc2C(Nc2nc3ccc(OC)cc3s2)c2c(O)ccc3ccccc23)cc1 (centres undefined) | 41.8 | 28.1 | 9.24 | 
O=[N+]([O-])c1cccc(-c2nn(-c3ccccc3)cc2C(Nc2nc3ccc(Cl)cc3s2)c2c(O)ccc3ccccc23)c1 (centres undefined) | 19.7 | 42.5 | 15.5 | 
COc1ccc2nc(NC(c3cn(-c4ccccc4)nc3-c3ccc([N+](=O)[O-])cc3)c3c(O)ccc4ccccc34)sc2c1 (centres undefined) | 13.3 | 22.5 | 5.54 | Activity (Calf thymus DNA [2]): Active; inhibition [3]: Active; Activity (Calf thymus DNA [4]): 337 nm; Activity (Calf thymus DNA [9]): Active; IC50 (HEK293): 46.5 µM; Activity (Calf thymus DNA [13]): Active; Activity (Calf thymus DNA [14]): Active; Activity (Calf thymus DNA [15]): inactive
Cc1cccc(-c2nn(-c3ccccc3)cc2C(Nc2nc3ccccc3s2)c2c(O)ccc3ccccc23)c1 (centres undefined) | 17.3 | 18.5 | 7.02 | 
COc1ccc(-c2nn(-c3ccccc3)cc2C(Nc2nc3ccccc3s2)c2c(O)ccc3ccccc23)cc1 (centres undefined) | 17.5 | 26.2 | 9.34 | 
Oc1ccc2ccccc2c1C(Nc1nc2ccccc2s1)c1cn(-c2ccccc2)nc1-c1cccc(Cl)c1 (centres undefined) | 20.7 | 20.4 | 6.83 | 
Oc1ccc2ccccc2c1C(Nc1nc2ccc(Cl)cc2s1)c1cn(-c2ccccc2)nc1-c1ccccc1 (centres undefined) | 36.3 | 51.1 | 12.5 | 
Cc1cc2nc(NC(c3cn(-c4ccccc4)nc3-c3ccc([N+](=O)[O-])cc3)c3c(O)ccc4ccccc34)sc2cc1C (centres undefined) | 41.1 | 41.9 | 14.7 | 
CN1CCN(c2ccc3[nH]c(-c4ccc5[nH]c(-c6ccc(O)cc6)nc5c4)nc3c2)CC1 |  |  |  | Activity (Calf thymus DNA [17]): inactive
Cc1ccc2nc(NC(c3cn(-c4ccccc4)nc3-c3ccc([N+](=O)[O-])cc3)c3c(O)ccc4ccccc34)sc2c1 (centres undefined) | 20.7 | 29 | 7.04 | 
CC[n+]1c(-c2ccccc2)c2cc(N)ccc2c2ccc(N)cc21 |  |  |  | Activity (Calf thymus DNA [17]): Active
Oc1ccc2ccccc2c1C(Nc1nc2ccc(Cl)cc2s1)c1cn(-c2ccccc2)nc1-c1ccc(I)cc1 (centres undefined) | 65 | 29 | 12.1 | 
COc1ccc2nc(NC(c3cn(-c4ccccc4)nc3-c3cccc(I)c3)c3c(O)ccc4ccccc34)sc2c1 (centres undefined) | 20 | 39.3 | 6.24 | 
Cc1ccc(-c2nn(-c3ccccc3)cc2C(Nc2nc3ccccc3s2)c2c(O)ccc3ccccc23)cc1 (centres undefined) | 13.1 | 57.4 | 8.05 | 

SMILES | IC50 (MCF7) [µM] | IC50 (A549) [µM] | IC50 (HeLa [5]) [µM] | also measured
O=[N+]([O-])c1ccc(-c2nn(-c3ccccc3)cc2C(Nc2nc3ccccc3s2)c2c(O)ccc3ccccc23)cc1 (centres undefined) | 14.7 | 41.2 | 6.81 | 
Oc1ccc2ccccc2c1C(Nc1nc2ccccc2s1)c1cn(-c2ccccc2)nc1-c1ccccc1 (centres undefined) | 48.9 | 36.2 | 17.3 | 
COc1ccc2nc(NC(c3cn(-c4ccccc4)nc3-c3cccc([N+](=O)[O-])c3)c3c(O)ccc4ccccc34)sc2c1 (centres undefined) | 26.8 | 52.1 | 6.14 | 
COc1cccc(-c2nn(-c3ccccc3)cc2C(Nc2nc3ccc(Cl)cc3s2)c2c(O)ccc3ccccc23)c1 (centres undefined) | 36 | 49.8 | 30 | 
O=[N+]([O-])c1ccc(-c2nn(-c3ccccc3)cc2C(Nc2nc3ccc(Cl)cc3s2)c2c(O)ccc3ccccc23)cc1 (centres undefined) | 38.6 | 57.2 | 13.4 | 
Oc1ccc2ccccc2c1C(Nc1nc2ccccc2s1)c1cn(-c2ccccc2)nc1-c1ccc(I)cc1 (centres undefined) | 18.9 | 23.1 | 6.59 | 
Oc1ccc2ccccc2c1C(Nc1nc2ccc(Cl)cc2s1)c1cn(-c2ccccc2)nc1-c1ccc(Cl)cc1 (centres undefined) | 27.5 | 54.1 | 36.8 | 
COc1cccc(-c2nn(-c3ccccc3)cc2C(Nc2nc3ccc(OC)cc3s2)c2c(O)ccc3ccccc23)c1 (centres undefined) | 62.6 | 88.1 | 10.5 | 
Cc1ccc2nc(NC(c3cn(-c4ccccc4)nc3-c3cccc(Cl)c3)c3c(O)ccc4ccccc34)sc2c1 (centres undefined) | 49.7 | 45.4 | 9.43 | 
Oc1ccc2ccccc2c1C(Nc1nc2ccc(Cl)cc2s1)c1cn(-c2ccccc2)nc1-c1ccc(F)cc1 (centres undefined) | 21.6 | 32.1 | 30.1 | 
Cc1ccc(-c2nn(-c3ccccc3)cc2C(Nc2nc3cc(C)c(C)cc3s2)c2c(O)ccc3ccccc23)cc1 (centres undefined) | 22.4 | 31.2 | 17.8 | 
COc1ccc2nc(NC(c3cn(-c4ccccc4)nc3-c3ccc(F)cc3)c3c(O)ccc4ccccc34)sc2c1 (centres undefined) | 16.9 | 33.6 | 4.63 | Activity (HeLa [1]): 5.08%; Activity (Calf thymus DNA [2]): Active; inhibition [3]: Active; Activity (Calf thymus DNA [4]): 507 nm; Activity (HeLa [6]): 57.5%; Activity (HeLa [7]): 2.79%; Activity (HeLa [8]): 25.3%; Activity (Calf thymus DNA [9]): Active; Activity (HeLa [10]): 3.09%; Activity (HeLa [11]): 28.2%; Activity (HeLa [12]): 11.5%; IC50 (HEK293): 58.1 µM; Activity (Calf thymus DNA [13]): Active; Activity (Calf thymus DNA [14]): Active; Activity (Calf thymus DNA [15]): inactive; Activity (HeLa [16]): 60%
CN1CCN(c2ccc3nc(-c4ccc5nc(-c6ccc(O)cc6)[nH]c5c4)[nH]c3c2)CC1 | 48.1 |  | 23.5 | 
Cc1ccc2nc(NC(c3cn(-c4ccccc4)nc3-c3cccc([N+](=O)[O-])c3)c3c(O)ccc4ccccc34)sc2c1 (centres undefined) | 38.4 | 57.4 | 7.36 | 
Oc1ccc2ccccc2c1C(Nc1nc2ccc(Cl)cc2s1)c1cn(-c2ccccc2)nc1-c1cccc(Cl)c1 (centres undefined) | 17.5 | 33.3 | 18.3 | 
COc1ccc2nc(NC(c3cn(-c4ccccc4)nc3-c3ccccc3)c3c(O)ccc4ccccc34)sc2c1 (centres undefined) | 40.8 | 44.6 | 8.29 | 
